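Five concentrations, 48 hours, 96-well plates. GI50 marks 50% less growth. TGI: total growth inhibition.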
What was measured:
Assay in all cases: growth of human tumour cells (NCI), 48 h
HOP-62 NSCLC = tested on: HOP-62 NSCLC
IGROV1 ovarian = tested on: IGROV1 ovarian
NCI-H23 lung = tested on: NCI-H23 lung
OVCAR-3 ovarian = tested on: OVCAR-3 ovarian
OVCAR-4 ovarian = tested on: OVCAR-4 ovarian
OVCAR-5 ovarian = tested on: OVCAR-5 ovarian
SF-268 CNS = tested on: SF-268 CNS
SK-MEL-28 melanoma = tested on: SK-MEL-28 melanoma
SN12C renal = tested on: SN12C renal

SMILES	GI50 (HOP-62 NSCLC) [µM]	TGI (HOP-62 NSCLC) [µM]	GI50 (IGROV1 ovarian) [µM]	TGI (IGROV1 ovarian) [µM]	GI50 (NCI-H23 lung) [µM]	TGI (NCI-H23 lung) [µM]	GI50 (OVCAR-3 ovarian) [µM]	TGI (OVCAR-3 ovarian) [µM]	GI50 (OVCAR-4 ovarian) [µM]	TGI (OVCAR-4 ovarian) [µM]	GI50 (OVCAR-5 ovarian) [µM]	TGI (OVCAR-5 ovarian) [µM]	GI50 (SF-268 CNS) [µM]	TGI (SF-268 CNS) [µM]	GI50 (SK-MEL-28 melanoma) [µM]	TGI (SK-MEL-28 melanoma) [µM]	GI50 (SN12C renal) [µM]	TGI (SN12C renal) [µM]
Cc1ccc(S(=O)(=O)n2cc(C(=O)C(=O)Nc3ccncc3)c3ccccc32)cc1	4.43	> 100	5.74	> 100	0.556	> 60.7	0.765	16.7	4.22	> 100	8.19	> 100	2	> 100	4.17	> 100	4.79	> 100
C/C(=C\c1ccn(-c2ccc(N)cc2)n1)[C@@H]1C[C@@H]2O[C@]2(C)CCC[C@H](C)[C@H](O)[C@@H](C)C(=O)C(C)(C)[C@@H](O)CC(=O)O1	0.0682	> 50	0.494	> 50	0.0594	> 50	0.0175	1.6	0.401	> 50	0.107	> 50	0.118	> 50			0.201	> 50
COc1cccc2c1c1nc3cc(C)c(C)cc3nc1n2CCN(C)C	1.72	11	1.76	10.7	1.66	5.57	2.22		2.06	8.6	2.4	9.48	2.13	7.45	1.94	4.23	1.66	11.2
[N-]=[N+]=CC(=O)OCC(N)C(=O)O (stereo unspecified)	2.26	> 100	5.47	> 100	1.85	> 100	3.73	> 100	4.29	> 100	0.971	> 100	1.89	> 100	2.94	> 100	0.749	> 100
CCOC(=O)c1cc2ncccc2c2ccccc12		> 100		> 100		> 100		> 100		> 100		> 100		> 100		> 100		> 100
COc1cc2c(cc1OC)[C@@]1(C)C(=O)c3cc4c(cc3[C@H]1N(C)C2=O)OCO4	> 100	> 100	33.9	> 100	> 100	> 100	96.2	> 100	> 100	> 100	> 100	> 100	64.6	> 100	> 100	> 100	82.4	> 100
O=C(/C=C\Sc1nccc(C(F)(F)F)n1)c1ccc(Br)cc1	> 100	> 100	16.8	35.8	22.8	52.6	14.9	30.2	20.4	45.8	21.8	70.7	33.2	> 100	16	32.1	18.8	43.1
COc1ccc(-c2nc(-c3nc4cc(C)c(C)cc4[nH]3)cc3c2[nH]c2ccccc23)cc1	7.63	> 100	9.99	> 100	11	68.2	2.25	4.6	6.98	> 100	4.01	> 100	12.7	> 100	2.89	10.5	5.54	> 100
COc1cnc2c(c1)C(=O)c1c-2n(CCCN2CCN(C)CC2)c(=O)c2cc(Cl)ccc12	0.95	36	10.4	87.1	6.27	24.6	15.1	29.3	2.19	18.1	3.56	13.3	4.75	29.1	2.3	5.04	10.2	58.2
COc1ccc2c(c1)Cc1c-2c(NN)nc2ccccc12	56.6	> 100	24.6	> 100			16.5	38.4	31.1	> 100	35.5	> 100	25.3	> 100	60.5	> 100	40.3	> 100
COC(=O)Nc1nc2ccc(Oc3ccc(NC(=O)Nc4cccc(Cl)c4)cc3)cc2[nH]1	0.9	4.73	2.86	9.79	2.24	12.9	0.768	2.23	3.05	8.19	4.04	> 25	2.43	15.3	1.84	7.41	2.06	11.7
C/C(=C\c1c[nH]c2ccccc12)[N+](=O)[O-]	4.04	13.6	5.43	19.2	10.2	22.6	8.57	24.8	7.58	21	19.3	34	4.16	19.2	1.84	5.47	3.53	14.4
CO[C@H]1CC[C@@]2(C)C(=CC[C@H]3[C@@H]4C[C@H](O)C[C@@]4(C)CC[C@@H]32)C1	10.2	52.4	6.91	26.5	5.54	27.1	2.47	5.63	8.82	54.2	20.2	44.1	6.42	21.4	8.55	22.1	6.61	22
Clc1ccc2nc(CCSCCc3nc4ccc(Cl)cc4[nH]3)[nH]c2c1		34.1		25.4		31.3				28.5		25.2						30.3

Reference: PubChem BioAssay (NCI)
